PMC7737769, “Pharmacological inhibition of syntenin PDZ2 domain impairs breast cancer cell activities and exosome loading with syndecan and EpCAM cargo” (Journal of Extracellular Vesicles, 2020)
Where “and” joins values, the source holds several entries; their conditions need not be identical. Equal values may be shown once. Entries after “also recorded” stand apart in the source; their conditions may differ. Read-outs that look alike come from different tables or passages of the source.

Columns and labels:
[1] = tested on: MCF‐7 cells; assay: Wound-healing (migration) assay, MCF-7; assay type: cell-based; details: MCF-7, 100 µM, 24 h
Procedure: For migration assays, cells were treated with 1 ng/ml of mitomycin (Sigma M4287) overnight to inhibit cell division. Treated cells were plated in Ibidi culture‐inserts (Ibidi Cat‐80206) for 12 h to reach 90%–95% of confluence with or without compounds (100 µM). A wound was created by removing inserts from the dishes. Medium with or without compounds (100 µM) was refreshed to remove dead cells and the cells were observed under an inverted light microscope (Leica SP2) equipped with a camera. Images were taken by MetaMorph software every 10 min for 24 h. Measurements of cell velocity were calculated using the MetaMorph software.

[2] = biological target: T1, syntenin‐SDC2 complex (GST-SyntFL / SDC2 peptide) (Homo sapiens, UniProt O00560); assay: HTRF assay, syntenin-SDC2 interaction; assay type: biochemical; details: for IC50: HTRF dose-response, read-out: IC50 for syntenin‐SDC2 complexes; for inhibition at 400 µM: HTRF
T1 construct: residues 1–298 or syntenin full‐length (FL) for HTRF assays; made in house; host or cells: E. coli ER2566
T1 sequence (O00560 1-298): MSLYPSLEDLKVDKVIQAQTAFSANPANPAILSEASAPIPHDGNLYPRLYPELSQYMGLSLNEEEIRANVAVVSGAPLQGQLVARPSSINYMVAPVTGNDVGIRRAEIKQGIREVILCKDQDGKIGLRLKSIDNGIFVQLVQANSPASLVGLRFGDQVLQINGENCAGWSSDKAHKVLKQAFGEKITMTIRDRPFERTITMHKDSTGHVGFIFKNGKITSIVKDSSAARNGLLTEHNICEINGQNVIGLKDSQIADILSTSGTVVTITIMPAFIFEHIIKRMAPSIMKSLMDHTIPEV

[3] = tested on: T2, syntenin‐Frizzled7 complex (GST-SyntFL / FZD7 peptide); assay: HTRF assay, syntenin-Frizzled 7 interaction; assay type: biochemical, human
T2 construct: residues 1–298 or syntenin full‐length (FL) for HTRF assays; made in house; host or cells: E. coli ER2566
Procedure: HTRF assays were performed in white 96Well Small VolumeHiBase Polystyrene Microplates (Greiner) with a total working volume of […], as described previously (Milhas et al., 2016). Briefly, compounds were firstly dispensed into the wells at 400 µM for the primary screen or with serial DMSO dilutions for IC50 measurement assays. Primary screening assays have been performed in monoplicate while IC50 measurements were performed in triplicates. All HTRF reagents were purchased from CisBio Bioassays and reconstituted according to the supplier protocols. The plates were spun for 3 min at 500 × g and then incubated at 4°C for 16 h. The HTRF signals were recorded on a POLAR star Omega plate reader (BMG Labtech) with an excitation filter at 337 nm and fluorescence wavelength measurement at 620 and 665 nm, an integration delay of 60 µs and an integration time of 400 µs. Results were analysed with a two‐wavelength signal ratio: [intensity (665 nm)/intensity (620 nm)] × 10^4. Percentage of inhibition was calculated using the following equation: % inhibition = [(compound signal)–(min signal)]/[(max signal)–(min signal)] × 100, where ‘max signal’ is the signal ratio with the compound vehicle alone (DMSO) and ‘min signal’ the signal ratio without protein B. For IC50 measurements, values were normalized and fitted with Prism (GraphPad software) using the following equation: Y = 100/(1+((X/ IC50)ˆHill slope)).
The search strategy for PDZ2 syntenin inhibitors was based on the PDZ targeted library developed from Enamine compound collection. The PDZ targeted library was developed to cover virtually all PDZ domains. Consequently, to create the syntenin PDZ2 focused library we used two independent paths: docking of the PDZ targeted library against structures of syntenin PDZ2 available in Protein Data Bank and a random selection from the PDZ targeted library. The docking has produced 21 virtual hits, which were added to 118 randomly selected compounds (10% of the pan PDZ library). The resultant set of 139 compounds, syntenin PDZ library was subjected to experimental validation. The primary screen was performed at 400µM using a previously validated Homogeneous Time Resolved Fluorescence (HTRF) assay (Milhas et al., 2016). HTRF is based on Fluorescence Resonance Energy Transfer (FRET) between two fluorescent reagents. In the present case, Anti‐GST‐Terbium antibody and streptavidin‐bound Dynamic2 were used as donor and acceptor respectively. Interactions between GST PDZ‐fusion proteins and biotinylated peptides containing PDZ binding motifs were challenged with the potential inhibitors. In parallel, control experiments were performed with a biotinylated‐GST to verify that compounds were not interfering with the FRET signal in a non‐specific manner. To identify inhibitors of syntenin PDZ interactions, we tested for the effect of the 139 compounds on syntenin‐SDC2 and syntenin‐Frizzled7 complexes (Figure 1a; Table S1). When the HTRF signal dropped below 0.9, inhibition was considered as effective. […] Noteworthy, these compounds had no effect on other PDZ complexes like GRASP55‐JAM‐B or GRASP55‐JAM‐C and Erbin‐Erbb2 or Erbin‐P0071 (Figure 1c).

[4] = tested on: MCF‐7 cells; assay: Cancer cell viability (Annexin V/7-AAD flow cytometry), MCF-7; assay type: cell-based; details: MCF-7, concentrations up to 100 µM, 48 h
Procedure: The effects of the compounds C58 and SyntOFF were tested both on MCF‐7 and MCF‐7 SyntKO cells. Briefly, the cells were treated with increasing concentrations of the compounds for 48 h and early/late apoptosis was measured by using the FITC Annexin V apoptosis detection kit with 7‐AAD (Biolegend, San Diego, CA, USA) according to the manufacturer. Annexin V positive but 7‐AAD negative (early apoptotic cells) and Annexin V positive and 7‐AAD positive (late stage apoptosis) was determined by using FACS LSRII flow cytometer (BD Biosciences) and data were analysed with Flowjo software (Tree Star).

| fold improvement of the affinity as compared to C58 ([2]; HTRF IC50) | inhibition at 400 µM ([2]; read-out: inhibition of the syntenin‐SDC2 interaction) [%] | Compound | cell migration (wound closure) [1] | ligand efficiency [2] [kcal/mol/atom] | GST SyntFL Syndecan 2 (signal ratio) ([2]; 400µM compound, Figure 1c) | IC50 [2] | inhibition of syntenin PDZ interactions ([2]; HTRF primary screen, 400µM, syntenin-SDC2 and syntenin-Frizzled7) | inhibition at 400 µM ([2]; syntenin-SDC2 and syntenin-Frizzled 7 complexes, read-out: extent of inhibition of Syntenin‐PDZ complexes) [%] | GST SyntFL Frizzled 7 (signal ratio) ([3]; 400µM compound, Figure 1c) | HTRF ASSAY GST-SyntFL FZD7 (HTRF signal ratio) ([3]; primary screen, 400 µM compound, signal below 0.9 considered effective inhibition, Table S1) | toxicity (cell viability) [4] |
| --- | --- | --- | --- | --- | --- | --- | --- | --- | --- | --- | --- |
|  |  | CC(C)[C@H](NC(=O)CSc1ccc(Cl)cc1)C(=O)O [Compound C58] | decreases | 0.24 | 0.36 | 350 µM and 349 µM | inhibit | 60 | 0.38 | 0.39 | not toxic; also recorded: non‐toxic |
| > 10 fold and 10 fold | 96 | CC(C)[C@H](NC(=O)CCSc1ccc(Cl)cc1)C(=O)O [SyntOFF, (S)‐2‐(3‐(4‐chlorophenylthio)propanamido)‐3‐methylbutanoic acid] |  | 0.30 |  | 37 µM |  |  |  |  | non‐toxic |
